Measurements from patent US10327423B2, “Antimicrobial compounds and compositions, and uses thereof” (Akeso Biomedical, Inc., priority 2014, dated 2019).
“Also recorded” adds a separate entry of the source.

Legend:
[1] = system: Uropathogenic E. coli UPEC-536; test: Planktonic growth rate in RPMI-1640; type: cell-based, Escherichia coli; details: Fe-QA 100 μM, 24 hours
Description: The growth rate of Uropathogenic E. coli UPEC-536 in RPMI-1640 media over a period of 24 hours was compared to the growth rate of UPEC in RPMI-1640 media, but in the presence of 100 μM Fe-QA. The growth rate of Pseudomonas aeruginosa in RPMI-1640 media was also compared to the growth rate of Pseudomonas aeruginosa in RPMI-1640 media, but in the presence of 100 μM Fe-QA.

Campylobacter = Campylobacter carriage in chickens (cfu/g of droppings and caeca samples); type: in vivo; details: days 0-42, dirty litter challenge
Description: A study was performed to evaluate growth promotion and reduction of Campylobacter carriage using FeQ and FeTyr in Ross 308 male broilers with 7 treatment groups. Each treatment group comprised four replicates of 10 birds per pen (40 birds/treatment group and 4 pens of 10 birds/treatment group), and there were 2 control groups and 5 test groups. All the test groups and one of the control groups were exposed at day 20 of the trial to dirty litter, which tested positive for Campylobacter. This method was used to provide a more natural method to Campylobacter challenge the birds. Thus there was a positive control where one treatment group was challenged with Campylobacter and one negative control group where the birds were not challenged, and five treatment groups that were all challenged with Campylobacter. The total number of birds used in the 7 treatment groups was 280. Treatment group 1 was a negative control where birds just received the commercial feed, and were not challenged with dirty litter containing Campylobacter. Treatment group 2 was the positive control where the birds received the commercial feed, and were challenged with dirty litter containing Campylobacter at day 20. Treatment group 3 received 0.22 g/L of FeQ in their drinking water and 0.22 g/Kg FeQ in their feed during the entire trial, and was challenged with dirty litter containing Campylobacter at day 20. Treatment group 5 received 0.22 g/L of FeQ in their drinking water during the entire trial, and was challenged with dirty litter containing Campylobacter at day 20. Treatment group 6 received 0.22 g/kg FeQ in their feed during the entire trial, and was challenged with dirty litter containing Campylobacter at day 20. […]
Prior to challenging the chickens with dirty litter containing Campylobacter at day 20, each pen was tested for Campylobacter using cloacal swabs. […] Samples were analyzed for blood chemistry, including analysis for alkaline phosphatase, aspartate amino transferase, alanine amino transferase, gamma-glutamyl transferase, lactate dehydrogenase, total protein, albumin, globulin, amylase and glucose.

[2] = system: Psuedomonas aeruginosa (PAO1N); test: Growth (OD600) in LB with Amikacin, tolerance to antibiotic; type: cell-based, Pseudomonas aeruginosa; details: 34, 100, 200 and 340 μM of FeQ or FePhe; Amikacin 10 µg/ml; 17.5 hours at 37° C.
Description: (§1) To investigate effects upon antibiotic resistance, a laboratory strain of Psuedomonas aeruginosa (PAO1N) and a mixed population of clinical isolates (PAO Mixed) were incubated in Luria-Bertani (LB) media alone, or with different concentrations (34 μM, 100 μM, 200 μM and 340 μM) of FeQ or FePhe.
(§2) Each of the different media, bar one control, contained 10 µg/ml of the aminoglycoside antibiotic Amikacin.
(§3) 10 μl of the bacterial strains were added into each well of a 96-well micro-titer plate, before 290 μl of the relevant media was added to wells. Each different condition was repeated in sextuplicate.
(§4) The plate was incubated at 37° C. within a micro-titer plate reader for 17.5 hours, with the OD600 read every 30 minutes.

[3] = system: mixed population of clinical isolates (PAO Mixed); test: as above; type: cell-based, Pseudomonas aeruginosa; details: 34, 100, 200 and 340 μM of FeQ or FePhe; Amikacin 10 µg/ml; 17.5 hours at 37° C.
Description: as §1, §2, §3, §4

Compound: O=C1[O][Fe]23([O]C(=O)[C@]4(C[C@@H](O)[C@H](O)[C@H](O)C4)[O]2)([O]C(=O)[C@]2(C[C@@H](O)[C@H](O)[C@H](O)C2)[O]3)[O][C@@]12C[C@@H](O)[C@H](O)[C@H](O)C2 [FeQ, a complex of quinic acid with Fe III]
- planktonic growth rate [1]: does not inhibit the growth
- Campylobacter colony forming units per gram of bird droppings at day 42 (Campylobacter; Treatment 7: FeQ 0.022 g/L in drinking water): less of an effect than the other treatment groups
- average Campylobacter cfu/g of caeca samples at day 42 versus positive control (Campylobacter; treatment groups 3, 5, 6, 7 (FeQ) and 8 (FeTyr)): lower levels of Campylobacter in their caeca; also recorded: performed better than the positive control
- tolerance to the aminoglycoside Amikacin (OD600 growth) [2]: reducing tolerance
- tolerance to the aminoglycoside Amikacin (OD600 growth) [3]: reducing tolerance
